Measurements as given in ChEMBL document CHEMBL5608141, “Identification of compartment-specific drug sensitivities in CRC organoid-stroma co-cultures” (2024).

Tests used:
Type in all cases: functional, Homo sapiens
Parameters in all cases: dose or concentration left out as unconfirmed
Colon cancer organoid [1] = assay: Identification of compartment-specific drug sensitivities in O06 CRC organoid-stroma F06 CAF co-cultures. Organoid is transduced with Lucferase2-P2A-EGFP lentivirus, fibroblast with Renilla-dsRed lentivirus. Dual-Glo Luciferase assay is used to report viability data.
Colon cancer organoid [2] = assay: Identification of compartment-specific drug sensitivities in O14 CRC organoid-stroma F14 CAF co-cultures. Organoid is transduced with Lucferase2-P2A-EGFP lentivirus, fibroblast with Renilla-dsRed lentivirus. Dual-Glo Luciferase assay is used to report viability data.
Colon cancer organoid [3] = assay: Identification of compartment-specific drug sensitivities in O20 CRC organoid-stroma F20 CAF co-cultures. Organoid is transduced with Lucferase2-P2A-EGFP lentivirus, fibroblast with Renilla-dsRed lentivirus. Dual-Glo Luciferase assay is used to report viability data.
[4] = Transduced with Lucferase2-P2A-EGFP lentivirus
[5] = Transduced with Renilla-dsRed lentivirus

| Compound | Cell Viability (Colon cancer organoid [1]; [4]) | Cell Viability (Colon cancer organoid [1]; [5]) | Cell Viability (Colon cancer organoid [2]; [4]) | Cell Viability (Colon cancer organoid [2]; [5]) | Cell Viability (Colon cancer organoid [3]; [4]) | Cell Viability (Colon cancer organoid [3]; [5]) |
| --- | --- | --- | --- | --- | --- | --- |
| COc1ccc2c(c1)O[C@@H](c1ccc(OC)c(OC)c1)C[C@H]2NC(=O)C1(c2ccc3c(c2)OC(F)(F)O3)CC1 [A-1596586] | 95.9961% | 117.187% | 83.2966% | 94.4694% | 84.651% | 101.93% |
| CCNC(=O)c1cc2c(-c3cc(C(C)(C)O)ccc3Oc3c(C)cc(F)cc3C)cn(C)c(=O)c2[nH]1 [ABBV-744] | 91.6049% | 287.135% | 77.9517% | 194.681% | 58.4777% | 215.224% |
| CC#CC(=O)N1CCC[C@H]1c1nc(-c2ccc(C(=O)Nc3ccccn3)cc2)c2c(N)nccn12 [ACALABRUTINIB] | 96.562% | 83.4698% | 75.641% | 83.8473% | 96.3915% | 99.9657% |
| CN(C)C/C=C/C(=O)Nc1cc2c(Nc3ccc(F)c(Cl)c3)ncnc2cc1O[C@H]1CCOC1.O=C(O)/C=C\C(=O)O.O=C(O)/C=C\C(=O)O [AFATINIB DIMALEATE] | 26.678% | 56.3894% | 29.0273% | 34.3509% | 37.8231% | 73.123% |
| COc1cc(Nc2ncc3c(n2)-c2ccc(Cl)cc2C(c2c(F)cccc2OC)=NC3)ccc1C(=O)O [ALISERTIB] | 7.435% | 169.322% | 16.3683% | 117.657% | 6.089% | 322.747% |
| Cc1nc(NC(=O)N2CCC[C@H]2C(N)=O)sc1-c1ccnc(C(C)(C)C(F)(F)F)c1 [ALPELISIB] | 74.6278% | 68.5217% | 47.6603% | 61.6268% | 70.8375% | 99.8659% |
| CC(C)[C@H](C(=O)Nc1ccc(C(=O)NO)cc1)c1ccccc1 [AR-42] | 8.004% | 640.047% | 24.8523% | 220.952% | 13.9942% | 352.85% |
| Cc1cnc(-c2cc(Cl)ccc2F)cc1-n1c(=O)n(CC(N)=O)c2ccccc21 [Al11] | 79.8154% | 66.9379% | 90.2433% | 100.795% | 100.628% | 109.542% |
| Cc1ccccc1Oc1cc(-n2c(=O)cc(C(F)(F)F)[nH]c2=O)c2ccccc2c1Cl [BAY-069] | 128.819% | 153.89% | 126.47% | 121.899% | 84.1162% | 119.466% |
| Cn1c(-c2csc(C3CCN(CC4=NC5N=CC=CC5N4)CC3)n2)nc2ccccc21 (configuration not stated) [BAY-070] | 29.934% | 49.5381% | 72.3778% | 60.078% | 42.0794% | 84.0468% |
| NS(=O)(=O)c1cc(NC(=O)C2(c3ccccc3Cl)CC2)ccc1Oc1cccc(Cl)c1 [BAY-207] | 102.145% | 97.9535% | 120.584% | 143.533% | 177.814% | 111.752% |
| CNCc1ccccc1-c1csc([C@@H](C)Nc2nc(C)nc3cc(OC)c(OC)cc23)c1 [BAY-293] | 41.2905% | 141.656% | 65.4303% | 97.5193% | 78.2703% | 145.24% |
| Cc1cc(NC(=O)c2cccc(S(F)(F)(F)(F)F)c2)cc(-n2ccn3nc(-c4cccnc4)cc23)c1 [BAY-309] | 58.4282% | 47.7134% | 149.605% | 88.4633% | 122.672% | 127.793% |
| O=C(N1CCS(=O)(=O)CC1)N1C[C@H](c2ccc(OC(F)(F)F)cc2)C[C@H](c2nc(C3CC3)no2)C1 [BAY-386] | 109.098% | 172.496% | 96.4412% | 110.483% | 61.9652% | 114.29% |
| Cc1c(N2CCNCC2)nc2ccc(Br)cc2c1C(=O)NC[C@H](CCC(=O)O)c1ccccc1Cl [BAY-403] | 78.4474% | 70.4581% | 117.744% | 98.3874% | 121.312% | 79.2483% |
| CN(C)c1ncnc(-c2ccc3nc(Nc4cc(CN5CCN(C(=O)CC(F)(F)F)CC5)ccn4)[nH]c3c2)c1Cl [BAY-440] | 110.52% | 104.43% | 161.186% | 109.54% | 123.006% | 109.622% |
| Cc1noc([C@H]2C[C@@H](c3ccc(C(F)(F)F)cc3)CN(C(=O)N3CCS(=O)(=O)C3)C2)n1 [BAY-448] | 64.3289% | 114.596% | 114.601% | 94.3368% | 115.252% | 84.5218% |
| CC1=C(C#N)C(c2ccc3[nH]nc(C)c3c2)C(C#N)=C(C)N1 [BAY-474] | 116.723% | 162.783% | 60.4688% | 119.272% | 81.7867% | 102.241% |
| CC(=O)C1=C(C)N(c2cccc(C(F)(F)F)c2)C(=O)N[C@H]1c1ccc(C#N)nc1 [BAY-677] | 73.3465% | 89.4043% | 123.312% | 108.035% | 134.265% | 107.791% |
| CC(=O)C1=C(C)N(c2cccc(C(F)(F)F)c2)C(=O)N[C@@H]1c1ccc(C#N)nc1 [BAY-678] | 95.8481% | 136.382% | 146.251% | 119.353% | 140.099% | 133.591% |
| Cc1nc(C2CCN(C(=O)c3ccc(OC(F)(F)F)cc3N)CC2)c2ncc(N3CCN(C)CC3)cc2n1 [BAY-693] | 114.208% | 166.908% | 77.0919% | 74.1942% | 93.6142% | 129.276% |
| O=C(O)[C@@H]1[C@@H](Cn2nnc3ccccc3c2=O)CC[C@H]1C(=O)c1ccc(OCCC2CCOCC2)cc1 [BAY-694] | 99.0718% | 68.3581% | 127.223% | 103.773% | 92.0939% | 91.7477% |
